In US20210238162A1, “CHEMICAL COMPOUNDS” (GlaxoSmithKline Intellectual Property Development Limited, priority 2015, published 2021):
Counter-ions that a name gives are not always drawn. Like-named read-outs stand apart in the source and are kept apart here.

Target: T1, haematopoietic prostaglandin D synthase (H-PGDS) (Homo sapiens, UniProt O60760)
T1 construct: Full length human H-PGDS cDNA (Invitrogen Ultimate ORF IOH13026) was amplified by PCR; made in house; host or cells: E. coli BL21 (DE3*), vector pET22b+
Assay: H-PGDS RapidFire High Throughput Mass Spectrometry Assay
Type: biochemical
Outline: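 PGH2 (~10 μM burst) generated in situ from arachidonic acid by FLAG-tagged human COX-2 (Sf9-expressed), then converted to PGD2 by full-length human His-tagged H-PGDS from E. coli. PGD2 and PGF2α (substrate surrogate) quantified by RapidFire SPE-triple quadrupole MS; percent conversion calculated.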

[1] = H-PGDS RapidFire MS assay, mean pIC50, read-out: Potency Range (mean pIC50) (converted)
[2] = in at least one experimental run, read-out: H-PGDS pIC50 value (converted)

T1 sequence (O60760 whole entry): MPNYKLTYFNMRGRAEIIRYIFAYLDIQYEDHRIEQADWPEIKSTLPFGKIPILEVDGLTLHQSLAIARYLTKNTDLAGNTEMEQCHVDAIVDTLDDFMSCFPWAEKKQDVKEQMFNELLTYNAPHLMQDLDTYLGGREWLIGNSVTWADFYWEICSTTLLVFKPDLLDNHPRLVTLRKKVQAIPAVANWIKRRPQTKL

Row | Structure (SMILES) | IC50 [1] [nM] | IC50 [2] [nM]
1 | O=C(N[C@H]1CC[C@H](N[C@@H](CO)C(F)(F)F)CC1)c1cnc2cc(OC(F)F)c(Br)cc2c1 [Example 153, 6-Bromo-7-(difluoromethoxy)-N-(trans-4-(((S)-1,1,1-trifluoro-3-hydroxypropan-2-yl)amino)cyclohexyl)quinoline-3-carboxamide] | < 10 | –
2 | O=C(N[C@H]1CCNC1=O)c1cnc2cc(OC(F)F)c(Br)cc2c1 [Example 154, (S)-6-Bromo-7-(difluoromethoxy)-N-(2-oxopyrrolidin-3-yl)quinoline-3-carboxamide] | < 10 | –
3 | O=C(N[C@H]1CC[C@H](N[C@H](CO)C(F)(F)F)CC1)c1cnc2cc(OC(F)F)c(Br)cc2c1 [Example 155, 6-Bromo-7-(difluoromethoxy)-N-(trans-4-(((R)-1,1,1-trifluoro-3-hydroxypropan-2-yl)amino)cyclohexyl)quinoline-3-carboxamide] | < 10 | –
4 | C[C@]1(O)C[C@@H](NC(=O)c2cnc3cc(OC(F)F)c(Br)cc3c2)C1 [Example 157, 6-Bromo-7-(difluoromethoxy)-N-((1s,3s)-3-hydroxy-3-methylcyclobutyl)quinoline-3-carboxamide] | 10 to 79.4 | –
5 | C[C@@H](N[C@H]1CC[C@H](NC(=O)c2cnc3cc(OC(F)F)c(Br)cc3c2)CC1)C(F)F [Example 158, 6-Bromo-7-(difluoromethoxy)-N-(trans-4-(((R)-1,1-difluoropropan-2-yl)amino)cyclohexyl)quinoline-3-carboxamide] | < 10 | –
6 | C[C@H](N[C@H]1CC[C@H](NC(=O)c2cnc3cc(OC(F)F)c(Br)cc3c2)CC1)C(F)F [Example 159, 6-Bromo-7-(difluoromethoxy)-N-(trans-4-(((S)-1,1-difluoropropan-2-yl)amino)cyclohexyl)quinoline-3-carboxamide] | < 10 | –
7 | CN(C)c1cc2ncc(C(=O)N[C@H]3CC[C@H](C(C)(C)O)CC3)cc2cc1F [Example 160, 7-(Dimethylamino)-6-fluoro-N-(trans-4-(2-hydroxypropan-2-yl)cyclohexyl)quinoline-3-carboxamide] | < 10 | 3.98
8 | CSc1cc2ncc(C(=O)N[C@H]3CC[C@H](C(C)(C)O)CC3)cc2cc1F [Example 161, 6-Fluoro-N-(trans-4-(2-hydroxypropan-2-yl)cyclohexyl)-7-(methylthio)quinoline-3-carboxamide] | < 10 | –
9 | CC(C)(O)[C@H]1CC[C@H](NC(=O)c2cnc3cc(N4CCC4)c(F)cc3c2)CC1 [Example 162, 7-(Azetidin-1-yl)-6-fluoro-N-(trans-4-(2-hydroxypropan-2-yl)cyclohexyl)quinoline-3-carboxamide] | < 10 | –
10 | CC(C)(O)[C@H]1CC[C@H](NC(=O)c2cnc3cc(N4CCCC4)c(F)cc3c2)CC1 [Example 163, 6-Fluoro-N-(trans-4-(2-hydroxypropan-2-yl)cyclohexyl)-7-(pyrrolidin-1-yl)quinoline-3-carboxamide] | 100 to 1000 | –
11 | CC(C)(O)[C@H]1CC[C@H](NC(=O)c2cnc3cc(N4CC(F)C4)c(F)cc3c2)CC1 [Example 164, 6-Fluoro-7-(3-fluoroazetidin-1-yl)-N-(trans-4-(2-hydroxypropan-2-yl)cyclohexyl)quinoline-3-carboxamide] | < 10 | –
12 | CC1(F)CN(c2cc3ncc(C(=O)N[C@H]4CC[C@H](C(C)(C)O)CC4)cc3cc2F)C1 [Example 165, 6-Fluoro-7-(3-fluoro-3-methylazetidin-1-yl)-N-(trans-4-(2-hydroxypropan-2-yl)cyclohexyl)quinoline-3-carboxamide] | 10 to 79.4 | 63.1
13 | O=C(N[C@H]1CCNC1=O)c1cnc2cc(N3CCC3)c(Cl)cc2c1 [Example 166, (S)-7-(Azetidin-1-yl)-6-chloro-N-(2-oxopyrrolidin-3-yl)quinoline-3-carboxamide trifluoroacetic Acid Salt] | < 10 | –
14 | CC1(O)CC(NC(=O)c2cnc3cc(N4CCC4)c(Cl)cc3c2)C1 (stereo not drawn) [Example 167, 7-(Azetidin-1-yl)-6-chloro-N-(3-hydroxy-3-methylcyclobutyl)quinoline-3-carboxamide trifluoroacetic Acid Salt] | < 10 | –
15 | CC(C)(O)[C@H]1CC[C@H](NC(=O)c2cnc3cc(N=[N+]=[N-])c(Cl)cc3c2)CC1 [Example 168, 7-Azido-6-chloro-N-(trans-4-(2-hydroxypropan-2-yl)cyclohexyl)quinoline-3-carboxamide] | 10 to 79.4 | –
16 | O=C(N[C@H]1CCNC1=O)c1cnc2cc(N3CC(F)C3)c(Cl)cc2c1 [Example 169, (S)-6-Chloro-7-(3-fluoroazetidin-1-yl)-N-(2-oxopyrrolidin-3-yl)quinoline-3-carboxamide] | < 10 | –
17 | CC(=O)c1cc2ncc(C(=O)N[C@H]3CC[C@H](C(C)(C)O)CC3)cc2cc1Cl [Example 172, 7-Acetyl-6-chloro-N-(trans-4-(2-hydroxypropan-2-yl)cyclohexyl)quinoline-3-carboxamide] | < 10 | –
18 | CC(C)(O)[C@H]1CC[C@H](NC(=O)c2cnc3cc(N)c(F)cc3c2)CC1 [Example 173, 7-Amino-6-fluoro-N-(trans-4-(2-hydroxypropan-2-yl)cyclohexyl)quinoline-3-carboxamide] | 100 to 1000 | –

Row | Structure (SMILES) | IC50 [1] [nM] | IC50 [2] [nM]
19 | C[C@H]1CCN1c1cc2ncc(C(=O)N[C@H]3CC[C@H](C(C)(C)O)CC3)cc2cc1F [Example 174, 6-Fluoro-N-(trans-4-(2-hydroxypropan-2-yl)cyclohexyl)-7-((S)-2-methylazetidin-1-yl)quinoline-3-carboxamide] | 10 to 79.4 | –
20 | C[C@@H]1CCN1c1cc2ncc(C(=O)N[C@H]3CC[C@H](C(C)(C)O)CC3)cc2cc1F [Example 175, 6-Fluoro-N-(trans-4-(2-hydroxypropan-2-yl)cyclohexyl)-7-((R)-2-methylazetidin-1-yl)quinoline-3-carboxamide] | 100 to 1000 | –
21 | C[C@H]1CCN1c1cc2ncc(C(=O)N[C@H]3CCNC3=O)cc2cc1F [Example 176, 6-Fluoro-7-((S)-2-methylazetidin-1-yl)-N—((S)-2-oxopyrrolidin-3-yl)quinoline-3-carboxamide] | 10 to 79.4 | –
22 | CC(C)(O)[C@H]1CC[C@H](NC(=O)c2cnc3cc(N4CC(F)(F)C4)c(F)cc3c2)CC1 [Example 177, 7-(3,3-Difluoroazetidin-1-yl)-6-fluoro-N-(trans-4-(2-hydroxypropan-2-yl)cyclohexyl)quinoline-3-carboxamide] | 10 to 79.4 | 20
23 | CCOc1cc2ncc(C(=O)N[C@H]3CC[C@H](C(C)(C)O)CC3)cc2cc1F [Example 178, 7-Ethoxy-6-fluoro-N-(trans-4-(2-hydroxypropan-2-yl)cyclohexyl)quinoline-3-carboxamide] | 10 to 79.4 | –
24 | CC(C)(O)[C@H]1CC[C@H](NC(=O)c2cnc3cc(C4CCC4)c(Cl)cc3c2)CC1 [Example 179, 6-Chloro-7-cyclobutyl-N-(trans-4-(2-hydroxypropan-yl)cyclohexyl)quinoline-3-carboxamide] | < 10 | –
25 | C[C@]1(O)C[C@@H](NC(=O)c2cnc3cc(C4CCC4)c(Cl)cc3c2)C1 [Example 180, 6-Chloro-7-cyclobutyl-N-((1s,3s)-3-hydroxy-3-methylcyclobutyl)quinoline-3-carboxamide] | 10 to 79.4 | –
26 | O=C(N[C@H]1CCNC1=O)c1cnc2cc(C3CCC3)c(Cl)cc2c1 [Example 181, (S)-6-Chloro-7-cyclobutyl-N-(2-oxopyrrolidin-3-yl)quinoline-3-carboxamide] | < 10 | –
27 | CC1CCN1c1cc2ncc(C(=O)N[C@H]3CCNC3=O)cc2cc1Cl (stereo partly drawn) [Example 182, 6-Chloro-7-(2-methylazetidin-1-yl)-N—((S)-2-oxopyrrolidin-3-yl)quinoline-3-carboxamide] | 10 to 79.4 | –
28 | CC1CN(c2cc3ncc(C(=O)N[C@H]4CC[C@H](C(C)(C)O)CC4)cc3cc2F)C1 [Example 183, 6-Fluoro-N-(trans-4-(2-hydroxypropan-2-yl)cyclohexyl)-7-(3-methylazetidin-1-yl)quinoline-3-carboxamide] | 10 to 79.4 | –
29 | CC(C)(O)[C@H]1CC[C@H](NC(=O)c2cnc3cc(SC(F)F)c(F)cc3c2)CC1 [Example 184, 7-((Difluoromethyl)thio)-6-fluoro-N-(trans-4-(2-hydroxypropan-2-yl)cyclohexyl)quinoline-3-carboxamide] | 10 to 79.4 | –
30 | CC(C)(O)[C@H]1CC[C@H](NC(=O)c2cnc3cc([S+]([O-])C(F)F)c(F)cc3c2)CC1 (stereo partly drawn) [Example 185, 7-((Difluoromethyl)sulfinyl)-6-fluoro-N-(trans-4-(2-hydroxypropan-2-yl)cyclohexyl)quinoline-3-carboxamide] | 10 to 79.4 | –
31 | Cc1ccc2cc(C(=O)N[C@H]3CC[C@H](C(C)(C)O)CC3)cnc2c1 [Example 186, N-(trans-4-(2-Hydroxypropan-2-yl)cyclohexyl)-7-methylquinoline-3-carboxamide] | 100 to 1000 | –
32 | C[C@H]1CCN1c1cc2ncc(C(=O)N[C@H]3CC[C@H](C(C)(C)O)CC3)cc2cc1Cl [Example 187, 6-Chloro-N-(trans-4-(2-hydroxypropan-2-yl)cyclohexyl)-7-((S)-2-methylazetidin-1-yl)quinoline-3-carboxamide] | < 10 | 6.31
33 | C[C@H]1CCN1c1cc2ncc(C(=O)N[C@H]3CCNC3=O)cc2cc1Cl [Example 188, 6-Chloro-7-((S)-2-methylazetidin-1-yl)-N—((S)-2-oxopyrrolidin-3-yl)quinoline-3-carboxamide] | 10 to 79.4 | –
34 | COc1cccc2cc(C(=O)N[C@H]3CC[C@H](C(C)(C)O)CC3)cnc12 [Example 189, N-(trans-4-(2-Hydroxypropan-2-yl)cyclohexyl)-8-methoxyquinoline-3-carboxamide] | 100 to 1000 | –
35 | CC(C)(O)[C@H]1CC[C@H](NC(=O)c2cnc3cc(C(F)(F)F)ccc3c2)CC1 [Example 190, N-(trans-4-(2-Hydroxypropan-2-yl)cyclohexyl)-7-(trifluoromethyl)quinoline-3-carboxamide] | 100 to 1000 | –
